# Measured values published in US20250312329A1, “MODIFIED RELEASE NICORANDIL COMPOUND FORMULATIONS” (AUXILIUS PHARMA SPOLKA Z OGRANICZONA ODPOWIEDZIALNOSCIA, priority 2021, published 2025).
# Legend:
# [1] = Loss of drying (LOD) of nicorandil/excipient powder blends; format: physicochemical; conditions: 1:1 excipient/API powder blend
# Text: To better understand the stability of nicorandil formulations according to the invention at an ingredient level, the following powder blend combinations were generated and analyzed: • NCD+HPMC • NCD+Starch • NCD+MCC • NCD+Magnesium stearate • NCD+Mannitol (not used in current formulation) • NCD only […]
# [2] = Excipient/API powder blend stability: impurities and NCD content initially and after storage; format: physicochemical
# Procedure: To better understand the stability of nicorandil formulations according to the invention at an ingredient level, the following powder blend combinations were generated and analyzed: • NCD+HPMC • NCD+Starch • NCD+MCC • NCD+Magnesium stearate • NCD+Mannitol (not used in current formulation) • NCD only […] These compositions were further analyzed (N=2) for impurities ([…]) and NCD content both initially and after 2 or 4 weeks of storage at accelerated stability testing conditions (40° C.) (per US FDA typical standards/procedures) or room temperature conditions (25° C.). Unknown impurities (“Unk. Imps.”) were also measured and the sum of all measured impurities (“Sum Imps.”) calculated.
# [3] = in vivo; cited from earlier work
# [4] = tested on: patients with stable angina; conditions: cited from earlier work
structure (smiles),measurement,setting,value
"O=C(NCCO[N+](=O)[O-])c1cccnc1 [Nicorandil, N-[2-(Nitro-oxy)ethyl]-3-pyridine carboxamide]",LOD (%),[1],0.28%
same,Imp A,[2]; T = 0,0.00 Weight Percent
same,Imp B,[2]; T = 0,0.01 Weight Percent
same,Imp C,[2]; T = 0,0.01 Weight Percent
same,Imp D,[2]; T = 0,0.11 Weight Percent
same,Mass Balance,[2]; T = 0,98.60 Weight Percent
same,NCD,[2]; T = 0,98.40 Weight Percent
same,Sum Imps.,[2]; T = 0,0.20 Weight Percent
same,Unk. Imps.,[2]; T = 0,0.06 Weight Percent
same,Imp A,"[2]; T = 2 weeks, 40° C.",0.00 Weight Percent
same,Imp B,"[2]; T = 2 weeks, 40° C.",0.04 Weight Percent
same,Imp C,"[2]; T = 2 weeks, 40° C.",0.05 Weight Percent
same,Imp D,"[2]; T = 2 weeks, 40° C.",0.22 Weight Percent
same,Mass Balance,"[2]; T = 2 weeks, 40° C.",100.01 Weight Percent
same,NCD,"[2]; T = 2 weeks, 40° C.",99.52 Weight Percent
same,Sum Imps.,"[2]; T = 2 weeks, 40° C.",0.49 Weight Percent
same,Unk. Imps.,"[2]; T = 2 weeks, 40° C.",0.18 Weight Percent
same,Imp A,"[2]; T = 4 weeks, 25° C.",0.00 Weight Percent
same,Imp B,"[2]; T = 4 weeks, 25° C.",0.00 Weight Percent
same,Imp C,"[2]; T = 4 weeks, 25° C.",0.00 Weight Percent
same,Imp D,"[2]; T = 4 weeks, 25° C.",0.12 Weight Percent
same,Mass Balance,"[2]; T = 4 weeks, 25° C.",108.41 Weight Percent
same,NCD,"[2]; T = 4 weeks, 25° C.",108.13 Weight Percent
same,Sum Imps.,"[2]; T = 4 weeks, 25° C.",0.29 Weight Percent
same,Unk. Imps.,"[2]; T = 4 weeks, 25° C.",0.17 Weight Percent
same,elimination half-life,[3],approximately 1 hour
same,"composite endpoint of coronary heart disease death, non-fatal MI or unplanned hospital admission with chest pain","[4]; IONA study, versus placebo, average 1.6 years",reduction in the composite endpoint
same,reduction in all-cause mortality,"[4]; JCAD study, average 2.7 years",35%
same,reduction in cardiac death,"[4]; JCAD study, average 2.7 years",56%
